Data as given in patent publication US20230416196A1, “DIMER OF BIGUANIDINES AND THEIR THERAPEUTIC USES” (INSTITUT CURIE, priority 2020, published 2023).

How the values were obtained:
U937 cells = test: Cell viability assay (CellTiter-Blue) on lymphoma cell line U937; type: cell-based; conditions: Homo sapiens, U-937, 72 h treatment
Protocol: Cell culture. U-937 cells were grown in an incubator equilibrated at 37° C. with 5% CO2, grown to confluence and split with Trypsin/EDTA (Gibco, […]01) once or twice a week according to confluence. U-937 (ATCC, HTB-132) were cultured in RPMI 1640 GLUTAMAX (ThermoFisher Scientific, 61870044) supplemented with 10% Fetal Bovine Serum (FBS, Gibco, 10270-106) and Penicillin-Streptomycin mixture (BioWhittaker/Lonza, DE17-602E). […] Peripheral blood samples were collected from distinct healthy donors (Etablissement Français du Sang). Pan monocytes were isolated by negative magnetic sorting using microbeads according to the manufacturer's instructions (Miltenyi Biotec, 130-096-537), and cultured in RPMI 1640 supplemented with glutamine (Thermo Fisher Scientific, 61870010), 10% fetal bovine serum and exposed to granulocyte-macrophage colony-stimulating factor (GM-CSF, Miltenyi Biotec, 130-093-866, 100 ng/mL) to induce differentiation into macrophages (MDM). […] Cell viability assay (IC50). Cell viability assay was carried out by plating 1000 cells/well in 96-well plates. Cells were treated for 72 h in a range between to 25 nM and […] using serial dilutions. The inventors followed the manufacturer's protocol. In brief, CellTiter-Blue® reagent (G8081, Promega) was added after 72 h treatment and cells were incubated for 3 h before recording fluorescence intensities (λex. 560/20 nm; λem. 590/10 nm) using a Perkin Elmer Wallac 1420 Victor2 Microplate Reader.

[1] = Copper-catalyzed oxidation of NADH by H2O2 (cell-free); type: biochemical; conditions: H2O2 present; FIG. 3C
Protocol: Copper-catalyzed oxidation of NADH. The oxidation kinetics of NADH (N4505, Sigma-Aldrich) was followed by measurement of absorbance at 340 nm using a NanoDrop 2000. Measurements were performed at 26° C. A 10 mM sodium phosphate buffer adjusted to pH=7.2 was used as solvent. Each 500 μL mixture were prepared with NADH (400 μM), imidazole (56750, Sigma-Aldrich, 10 mM), CuSO4 (451657, Sigma-Aldrich, 4 μM), LCC/K2CO3 solution (1:1) (4 μM or 400 μM), metformin/K2CO3 solution (2:1) (J63361, Alfa Aesar, 800 μM), as indicated, and a H2O2 solution (16911, Sigma-Aldrich, 2 mM from an aq. solution 25-35% in H2O2) added at the reaction start time. The concentration of NADH was calculated from the measured absorbance at 340 nm and a molar extinction coefficient of […] L mol^−1 cm^−1.

dendritic cells = test: Activation of dendritic cells (CD40, CD83, CD80, CD86 flow cytometry); type: cell-based, human; conditions: LCC-12 10 μM, 24 h, LPS; FIG. 6E
Protocol: Dendritic cells. Peripheral blood samples were collected from healthy donors (Etablissement Français du Sang). Pan monocytes were isolated by negative magnetic sorting using microbeads according to the manufacturer's instructions (Miltenyi Biotec, 130-096-537), and cultured in RPMI 1640 supplemented with glutamine, 10% fetal bovine serum and treated with granulocyte-macrophage colony-stimulating factor (GM-CSF, 100 ng/mL) and IL-4 (10 ng/mL) to induce differentiation into dendritic cells (DC). At day 5 of differentiation, DC were treated with lipopolysaccharides (LPS, 100 ng/mL, 24 h) to generate activated DC and were co-treated with LCC-12 (in-house, 10 μM, 24 h). The activation status of the dendritic cells was assessed by measuring CD40, CD83, CD80 and CD86 surface markers by flow cytometry.

SMILES: N=C(N)NC(=N)NCCCCCCCCCCCCNC(=N)NC(=N)N [LCC-12, lipophilic copper clamp C12]
- IC50 (U937 cells): 2 µM
- rate of NADH oxidation catalyzed by copper(II) [1]: more pronounced effect
- activation of dendritic cells (dendritic cells): decreases the activation
